Assay results: the OPERA property sets (Mansouri et al. 2018)
Values after ≈ are worked out from the molar mass of the structure shown.

SMILES	logP	solubility (20 °C) [µM]	other results
C#CCOc1cc(-n2nc(C(C)(C)C)oc2=O)c(Cl)cc1Cl	3.95	1.08 (≈ 0.37 µg/mL)	–
C=CCOC1=NS(=O)(=O)c2ccccc21	–	–	solubility: 672 µM (≈ 150 µg/mL)
COc1ccc(-c2ccccc2)cc1NNC(=O)OC(C)C	–	12.5 (≈ 3.76 µg/mL)	–
CCOC(=O)[C@@H](C)Oc1ccc(Oc2nc3ccc(Cl)cc3o2)cc1	4.58	–	–
CC[C@H]1O[C@]2(CC[C@@H]1C)C[C@@H]1C[C@@H](CC=C(C)C[C@@H](C)C=CC=C3CO[C@@H]4[C@H](O)C(C)=C[C@@H](C(=O)O1)[C@]34O)O2	5.9	13.3 (≈ 7.2 µg/mL)	–
CC1(C)OC[C@@H]2O[C@@]3(C(=O)O)OC(C)(C)O[C@H]3[C@@H]2O1	1.35	–	–
COP(=O)(OC)SCn1c(=O)oc2cc(Cl)cnc21	1.05	–	–
C/C=C(\C)C(=O)O[C@H]1C[C@@H](OC(C)=O)[C@@]2(C(=O)OC)CO[C@H]3[C@@H](O)[C@@](C)([C@]45O[C@@]4(C)[C@H]4C[C@@H]5O[C@@H]5OC=C[C@@]54O)[C@H]4[C@]1(CO[C@]4(O)C(=O)OC)[C@@H]32	1.09	–	–
NC(=O)c1nc(-c2ccccc2)n(-c2ccc(Cl)c(COCC(F)(F)C(F)(F)F)c2)n1	–	–	solubility (pH 7.4, 20 °C): 2.17 µM (≈ 1 µg/mL)
CC1=CC[C@@H]2C[C@@H](C[C@]3(CC[C@H](C)[C@@H](C)O3)O2)OC(=O)[C@@H]2C=C(C)[C@@H](O)[C@H]3OCC(=CC=C[C@H](C)C1)[C@]32O	5.3	1.66 (≈ 0.88 µg/mL)	–
CN(C(=O)COc1nc2ccccc2s1)c1ccccc1	3.23	–	–
CCC(C)Nc1c([N+](=O)[O-])cc(C(C)(C)C)cc1[N+](=O)[O-] (centres undefined)	4.93	–	–
CC#Cc1cc(C)nc(Nc2ccccc2)n1	3.28	–	–
CON=C(C)c1cccc(Oc2nc(OC)cc(OC)n2)c1C(=O)OC	2.84	249 (≈ 90 µg/mL)	–
O=C1C2CC=CCC2C(=O)N1SC(Cl)(Cl)Cl (centres undefined)	2.8	–	–
COC(C)(C)CCCC(C)C/C=C/C(C)=C/C(=O)OC(C)C (centres undefined)	–	–	solubility: 4.51 µM (≈ 1.4 µg/mL)
CN(C)c1nc(=O)n(C2CCCCC2)c(=O)n1C	–	–	solubility (25 °C): 131000 µM (≈ 33000 µg/mL)
FC(F)(F)C(=NOCC1OCCO1)c1ccc(Cl)cc1	2.9	96.9 (≈ 30 µg/mL)	–

SMILES	logP	solubility (20 °C) [µM]	other results
C/C(=N\NC(=O)Nc1cc(F)cc(F)c1)c1ncccc1C(=O)O	–	–	solubility: 188 µM (≈ 63 µg/mL)
CCCN(CCC)c1c([N+](=O)[O-])cc(C(F)(F)F)cc1[N+](=O)[O-]	–	–	solubility (pH 5.0, 25 °C): 0.701 µM (≈ 0.235 µg/mL)
COc1cc(OC)n2nc(S(=O)(=O)Nc3c(Cl)ccc(C)c3Cl)nc2n1	3.08	478 (≈ 200 µg/mL)	–
C#CC(OC(=O)C1C(C=C(C)C)C1(C)C)/C(C)=C/CC (centres undefined)	–	–	solubility (25 °C): 0.404 µM (≈ 0.111 µg/mL)
Cc1c(COC(=O)[C@@H]2[C@H](/C=C(\Cl)C(F)(F)F)C2(C)C)cccc1-c1ccccc1 (racemic)	–	–	solubility: 0.236 µM (≈ 0.1 µg/mL)
O=C(NC(=O)c1c(F)cccc1F)Nc1ccc(OC(F)(F)C(F)OC(F)(F)F)c(Cl)c1 (centres undefined)	5.27	–	solubility (25 °C): 0.108 µM (≈ 0.0531 µg/mL)
CC(C)(SC(=O)N1CCCCC1)c1ccccc1	4.02	–	solubility (25 °C): 75.9 µM (≈ 20 µg/mL)
N#Cc1nn(-c2c(Cl)cc(C(F)(F)F)cc2Cl)c(N)c1S(=O)C(F)(F)F (centres undefined)	4	4.35 (≈ 1.9 µg/mL)	–
Cc1ccc(NC(O)=NC(C)(C)c2ccccc2)cc1	–	4.47 (≈ 1.2 µg/mL)	–
CCCN(CCC)c1c([N+](=O)[O-])cc(S(N)(=O)=O)cc1[N+](=O)[O-]	3.73	–	–
O=C(NC(=O)c1c(F)cccc1F)Nc1cc(Cl)c(F)c(Cl)c1F	–	–	solubility (23 °C): 0.0512 µM (≈ 0.0195 µg/mL)
CC1(C)[C@H](C=C(Cl)Cl)[C@H]1C(=O)OCc1c(F)c(F)cc(F)c1F	–	0.154 (≈ 0.057 µg/mL)	–
CCNc1nc(Cl)nc(NCC)n1	–	46 (≈ 9.28 µg/mL)	–
CC(C)(C)C(O)/C(=C\c1ccc(Cl)cc1)n1cncn1 (centres undefined)	3.67	–	–
CCC(Nc1ncnc(C)c1Cl)c1ccc(OC(F)F)cc1 (centres undefined)	–	–	solubility: 101 µM (≈ 33 µg/mL)
CCS(=O)CCSP(=O)(OC)OC (centres undefined)	-0.74	–	–
NC(=O)C1(N2C(=O)c3cccc(Cl)c3C2=O)CCCCC1	–	–	solubility (25 °C): 97.8 µM (≈ 30 µg/mL)
